Data reported in paper PMC9411606, “Control cell migration by engineering integrin ligand assembly” (Nature Communications, 2022).

Columns and labels:
[1] = Circular dichroism (CD) spectroscopy of peptide assemblies; type: physicochemical; conditions: 100 µM, aqueous, 0.5 mm path
Procedure: CD spectra of the peptide assemblies in aqueous solutions were recorded under the nitrogen atmosphere using a spectrophotometer JASCO J-820 (Jasco, Japan). A quartz cuvette with 0.5 mm path length was used as a sample container. Continuous scanning mode is applied. And each sample is scanned three times to obtain an averaged spectrum.

integrin α3β1 = experiment: MicroScale Thermophoresis integrin binding; design: species or system human; conditions: MST, n = 3
Description: The interaction between integrins and peptide ligands in PBS was quantified by a Monolith® NT.115Pico (NanoTemper Technology, Germany) using MO. Control 1.6 software. Recombinant human integrin proteins, including alpha-3/ beta-1, alpha-5/beta-1, and alpha-6/ beta-1, were purchased from R&D Systems (USA). Recombinant integrin proteins were labeled by Monolith^TM Protein Labeling Kit RED-NHS (NanoTemper Technology) following the instruction provided by the manufacturer. The fluorescence-labeled integrin solution was mixed with peptides solution in 15 concentration gradients at a 1:1 ratio. The Monolith^TM NT.115 MST Premium Coated Capillaries (NanoTemper Technology) were applied to draw the mixed solution with the order of declining ligand concentration. Pretests were performed to ensure the protein concentration and fluorescent intensities in each tube were equal. Following that, quantitative binding affinity was measured three times.

[2] = test system: integrin α3β1 expressing cells (HuH-7, HeLa, HepG2, A549, MKN1, and U-87 MG); experiment: Wound healing assay, integrin α3β1 expressing cells; type: cell-based, human; conditions: 10-200 µM
Procedure: (§1) Healthy cells were seeded in 96-well Image Lock plates (Essen Bioscience, UK). Each well contained 2 ×10^4 to 5 × 10^4 cells in 100 μL of complete cell culture medium. Cell monolayer with approximately 90% confluence formed after 12 hr and cells were next starved in serum-free culture medium for 12 hrs. Homogenous scratch wounds with a width of about 700 μm were made by an Essen BioScienceWound Maker. The detached cells were washed with Dulbecco’s Buffered Saline (DPBS, Gibco) 3 times. Cells were incubated with 100 μL of culture medium containing 0.5 % FBS and desired concentration of each peptide. Wound closure was monitored by an IncucyteS3 (Essen Bioscience) with a 10x objective. Images for each well were acquired every 2 hr to 8 hr for 2 days or until the wounds were closed completely. The wound healing rate was quantified by Incucyte Scratch Wound Analysis Module (Essen Bioscience). The experiments were repeated at least 3 times, and the results were presented as mean ± standard deviation of at least 3 independent experiments.

[3] = test system: MCF-7 and Ect1/E6E7 cells; experiment: Wound healing assay, cells lacking integrin α3β1; type: cell-based, human; conditions: 10-200 µM, 48 hr
Procedure: as §1

[4] = test system: cells lacking integrin α3β1 expression; experiment: Cell adhesion assay, cells lacking integrin α3β1; type: cell-based, human; conditions: coated with 100 µM, 1 h at 37 °C, n = 30
Procedure: (§2) The 96-well microplates wells were coated with peptide assemblies (the concentration of FFFIKLLI was kept at 100 μM constantly) for 12 hr at 37 °C before blocked with the Blocking Buffer (2% BSA, 1 mM CaCI2 and 1 mM MnCI2 in PBS) for 1 hr at 37 °C. Cells were collected from culture dishes and suspended in the Blocking Buffer containing anti-laminin-5 (P3H9-2, MAB1947, Chemicon, 5 μg/ml), anti-fibronectin (IST-9, ab6328, Abcam, 20 μg/ml) or IgG isotype control (20 μg/ml, Abcam) before immediately seeded to the coated well (20,000 cells/well) and allowed to incubate at 37 °C for 1 h. The wells were washed for three times with the Blocking Buffer and the phase-contrast images were captured by IncucyteS3 (Essen Bioscience) with a 10× objective.

HuH-7 cells = experiment: Cell adhesion assay, HuH-7; type: cell-based, human; conditions: FFFIKLLI pre-coated dishes
Procedure: as §2

[5] = test system: FAK Y397 phosphorylation in HuH-7 cells; experiment: Western blotting FAK / pY397 FAK; type: cell-based, human
[6] = test system: paxillin Y118 phosphorylation in HuH-7 cells; experiment: Western blotting Paxillin / pY118 Paxillin; type: cell-based, human
Procedure: Protein lysates were prepared in ice-cold RIPA lysis, and extraction buffer (Thermo Scientific) supplemented with 1% Halt Protease Inhibitor (Thermo Scientific) and 1% Halt Phosphatase inhibitor (Thermo Scientific). Cells were scraped off from the culture surface using a cold plastic cell scraper, and the cell suspension was then gently transferred into a pre-cooled microcentrifuge tube and maintained on ice for 30 min with constant agitation before centrifuged at 21000 × g for 20 min. The supernatant was then transferred to a new tube, and the protein concentration of the supernatant was quantified according to the Pierce™ BCA Protein Assay Kit (Thermo Scientific). The rest of the supernatant was mixed with 4x laemmli sample buffer (Bio-Rad) in a 1:3 ratio and boiled at 100 °C for 10 min. Lysates can be aliquoted and stored at −80 °C freezer. When running the gel, 30 μg of protein was loaded into each well of the SDS-PAGE gels, along with a molecular weight marker (Bio-Rad). The gel was run for 2 hr at constantly 100 V to separate the proteins based on the molecular weight. The proteins were then transferred from the SDS-gel to a PVDF membrane (Bio-Rad) using a Transfer-blot turbo system (Bio-Rad). Once the membranes were blocked with Blocking One P solution (Nacalai) for 20 min at room temperature with gentle shaking, they were probed with antibodies against GAPDH (6C5, ab8245, Abcam, 1:1000), integrin beta 1 (12G10, ab30394, Abcam, 1:100), integrin alpha 3 (ASC-1, MA5-28565, Invitrogen, 1:100), integrin alpha 6 (EPR18124, ab191551, Abcam, 1:200), Phospho-Myosin Light Chain 2 (Thr18/Ser19)(pMLC, #3647, Cell Signaling Technology, 1:200) diluted in Tris-Buffered Saline containing 0.1% Tween-20 and 5% Blocking one P solution and the membrane was incubated in the dark for overnight at 4 °C with gentle shaking. The unbounded antibodies were washed out with tris-buffered saline (TBS) containing 0.1% Tween-20 (TBS- T) for 10 min for at least 6 times. […] Protein bands were quantified by measuring peak areas using ImageJ. […]

[7] = relative to Ctrl = 1, 12 hr, representative blot

FFFIKLLI [assembling ligand: FFF coupled to the N-terminus of IKLLI; self-assembles into nanofilaments]
secondary structure of self-assembly [1]: random coil structure
integrin-binding affinity (integrin α3β1; PBS, integrin 2 nM, in words): highest binding affinity
integrin selectivity (integrin α3β1; integrin α3β1 vs α5β1 and α6β1, integrin 2 nM): selectively targeted integrin α3β1
effect on cell migration [2]: suppression effect
effect on cell migration [3]: negligible influence
adherence to FFFIKLLI-coated dishes [4]: washed out
attached cells (HuH-7 cells; IgG, n = 30): 171.2 Counts / mm2
attached cells (HuH-7 cells; anti-fibronectin IST-9, n = 30): 162.2 Counts / mm2
attached cells (HuH-7 cells; anti-laminin-5 P3H9-2, n = 30): 157.4 Counts / mm2
FAK Y397 phosphorylation ([5]; HuH-7, 12 hr, n = 9): reduction
FAK band [5, 7]: 0.87
pY397FAK band [5, 7]: 0.34
paxillin Y118 phosphorylation ([6]; HuH-7, 12 hr, n = 9): reduction
Paxillin band [6, 7]: 1.01
pY118Paxillin band [6, 7]: 0.34
